Test results as given in patent publication US20240208969A1, “SUBSTITUTED FUSED BICYCLIC COMPOUNDS AS PARP INHIBITORS AND THE USE THEREOF” (IMPACT THERAPEUTICS (SHANGHAI), INC., priority 2021, published 2024).

Tested on: MDA-MB-436 cells
Test: Inhibition of proliferation of human breast cancer MDA-MB-436 cell line (CCK-8, 7 days)
Format: cell-based
Settings: Homo sapiens, 168 h, proliferation of MDA-MB-436, 7 days
Experimental: The cells were cultured in complete medium (DMEM medium +10% FBS+Insulin+glutathione). When the confluence reached about 80%, cells were digested and gently dispensed from the bottom of the dish with a 1 mL pipette. Cell suspension was collected and centrifuged at 500 rpm for 3 min. The supernatant was discarded, and the cell pellet were re-suspended in complete medium. The cells were seeded into a culture dish at an appropriate proportion, and then cultured in a 5% CO2 incubator at 37° C. The assay was carried out when the cells were in optimum condition and the confluence was reached 80%. Cells were harvested in the logarithmic growth phase by using 1 mL pipette gently and then centrifugated at 500 rpm for 3 min. The cells were resuspended by using refresh medium after removing the supernatant and then the cells were counted. The cells were seeded at 3000/well in a 96 well plate and incubated at 37° C. 5% CO2 incubator overnight. In the second day, cells were treated with compound at 8 serially diluted dose with 1000×final concentration in 100% DMSO. The compound was prepared as below: 1000×dilution tested compound solution to 40×test compound solution by adding 5μL, 1000×compound solution to 120 μL Medium (25-fold dilution). The solution was mixed by oscillation. DMSO was used as the control.
The medium was removed from the wells in the plate after the plate was taken out from incubator. Then, fresh medium of 195 μL/per well was added to the 96 well plate. 5μL/per well of 40×test compound solution was added into the 96 well plate. Finally, the plate was incubated for 7 days in a 37° C. 5% CO2 incubator. The medium containing compound was changed once on the fourth day. After 7 days, 20 μL of CCK-8 was added to each well and shake gently, then was cultured for 4 hours. The plate was shaken for 5 min after incubation, the absorbance values of 450 nm. and 650nm wavelengths were recorded respectively (OD=absorbance value of 450 nm−absorbance value of 650 nm) by using the multifunction readout instrument.
Data were analyzed by software GraphPad Prism 6.0. The inhibitory activity of compounds on cell proliferation was plotted using cell survival rate against the compound concentration as coordinates. Cell survival rate %=(ODcompound−ODbackground)/(ODDMSO−ODbackground)×100. The IC50 value was fitted by the s-shaped dose response curve equation: Y=100/(1+10^(log C−log IC50)), and C was the compound concentration.
Table 2 summarizes the inhibitory effect data (IC50) of the compounds on the proliferation of human breast cancer cells MDA-MB-436, wherein ++++ indicates 1<IC50≤10 nM; +++ indicates 10 nM<IC50≤100 nM; ++ indicates 100 nM<IC50≤1 μM; + indicates IC50>1 μM.

| SMILES | IC50 |
| --- | --- |
| CNC(=O)c1ccc(N2CCN(Cc3cnc4c(=O)n(C)c(=O)[nH]c4c3)CC2)cn1 [Example 2, 5-(4-((3-methyl-2,4-dioxo-1,2,3,4-tetrahydropyrido[3,2-d]pyrimidin-7-yl)methyl)piperazin-1-yl)-N-methylpicolinamide] | > 1000 nM |
| CCn1c(=O)[nH]c2cc(CN3CCN(c4ccc(C(=O)NC)nc4)CC3)ncc2c1=O [Example 5, 5-(4-((3-ethyl-2,4-dioxo-1,2,3,4-tetrahydropyrido[4,3-d]pyrimidin-7-yl)methyl)piperazin-1-yl)-N-methylpicolinamide] | > 1000 nM |
| CCn1c(=O)[nH]c2cc(CN3CCN(c4ccc(C(=O)NC)nc4F)CC3)cnc2c1=O [Example 9, 5-(4-((3-ethyl-2,4-dioxo-1,2,3,4-tetrahydropyrido[3,2-d]pyrimidin-7-yl)methyl)piperazin-1-yl)-6-fluoro-N-methylpicolinamide] | 100 to 1000 nM |
| CNC(=O)c1ccc(N2CCN(Cc3ccc4c(=O)n(CCF)c(=O)[nH]c4c3)CC2)c(C)n1 [Example 20, 5-(4-((3-(2-fluoroethyl)-2,4-dioxo-1,2,3,4-tetrahydroquinazolin-7-yl)methyl)piperazin-1-yl)-N,6-dimethylpicolinamide] | 100 to 1000 nM |
| CCn1c(=O)[nH]c2cc(CN3CCN(c4ccc(C(=O)NC)nc4C(F)(F)F)CC3)ccc2c1=O [Example 23, 5-(4-((3-ethyl-2,4-dioxo-1,2,3,4-tetrahydroquinazolin-7-yl)methyl)piperazin-1-yl)-N-methyl-6-(trifluoromethyl)picolinamide] | 100 to 1000 nM |
| CCn1c(=O)[nH]c2cc(CN3CCN(c4ccc(C(=O)NC)nc4C(F)F)CC3)ccc2c1=O [Example 35, 5-(4-((3-ethyl-2,4-dioxo-1,2,3,4-tetrahydroquinazolin-7-yl)methyl)piperazin-1-yl)-6-(difluoromethyl)-N-methylpicolinamide] | 100 to 1000 nM |
| CCn1c(=O)[nH]c2cc(CN3CCN(c4ccc5c(c4)CCN(C)C5=O)CC3)ccc2c1=O [Example 36, 3-ethyl-7-((4-(2-methyl-1-oxo-1,2,3,4-tetrahydroisoquinolin-6-yl)piperazin-1-yl)methyl)quinazoline-2,4(1H,3H)-dione] | > 1000 nM |
| CCn1c(=O)[nH]c2cc(CN3CCN(c4ccc5c(c4)CCNC5=O)CC3)ccc2c1=O [Example 37, 3-ethyl-7-((4-(1-oxo-1,2,3,4-tetrahydroisoquinolin-6-yl)piperazin-1-yl)methyl)quinazoline-2,4(1H,3H)-dione] | > 1000 nM |
| CCn1c(=O)[nH]c2cc(CN3CCN(c4ccn5c(=O)ccnc5c4)CC3)ccc2c1=O [Example 38, 3-ethyl-7-((4-(4-oxo-4H-pyrido[1,2-a]pyrimidin-8-yl)piperazin-1-yl)methyl)quinazoline-2,4(1H,3H)-dione] | > 1000 nM |
| CCn1c(=O)[nH]c2cc(CN3CCN(c4ccc(C(=O)N(C)C)nc4F)CC3)ccc2c1=O [Example 39, 5-(4-((3-ethyl-2,4-dioxo-1,2,3,4-tetrahydroquinazolin-7-yl)methyl)piperazin-1-yl)-6-fluoro-N,N-dimethylpicolinamide] | > 1000 nM |
| CCn1c(=O)[nH]c2cc(-c3cc(F)cc(C(=O)Nc4ccc(C(=O)NC)nc4)c3)ccc2c1=O [Example 43, 5-(3-(3-ethyl-2,4-dioxo-1,2,3,4-tetrahydroquinazolin-7-yl)-5-fluorobenzamido)-N-methylpicolinamide] | > 1000 nM |
| CCn1c(=O)[nH]c2cc(-c3cccc(C(=O)Nc4ccc(C(=O)NC)nc4)c3)cnc2c1=O [Example 45, 5-(3-(3-ethyl-2,4-dioxo-1,2,3,4-tetrahydropyrido[3,2-d]pyrimidin-7-yl)benzamido)-1-methylpicolinamide] | > 1000 nM |
| CCn1c(=O)[nH]c2cc(-c3cccc(C(=O)Nc4ccc(C(=O)NC)nc4)n3)ccc2c1=O [Example 46, 6-(3-ethyl-2,4-dioxo-1,2,3,4-tetrahydroquinazolin-7-yl) -N-(6-(methylcarbamoyl)pyridin-3-yl)picolinamide] | 100 to 1000 nM |
| CCn1c(=O)[nH]c2cc(CN3CCN(c4cnc(C(=O)NC)cc4C)CC3)ccc2c1=O [Example 50, 5-(4-((3-ethyl-2,4-dioxo-1,2,3,4-tetrahydroquinazolin-7-yl)methyl)piperazin-1-yl)-N,4-dimethylpicolinamide] | > 1000 nM |
| CCn1c(=O)[nH]c2cc(CN3CCN(c4cnc(C(=O)NC)c(C)c4)CC3)ccc2c1=O [Example 51, 5-(4-((3-ethyl-2,4-dioxo-1,2,3,4-tetrahydroquinazolin-7-yl)methyl)piperazin-1-yl)-N,3-dimethylpicolinamide] | > 1000 nM |
| CCn1c(=O)[nH]c2cc(CN3CCN(c4ccc(C(=O)NC)nc4C)CC3)c(C)cc2c1=O [Example 52, 5-(4-((3-ethyl-6-methyl-2,4-dioxo-1,2,3,4-tetrahydroquinazolin-7-yl)methyl)piperazin-1-yl)-N,6-dimethylpicolinamide] | > 1000 nM |
| CCn1c(=O)[nH]c2cc(CN3CCN(c4ccc(C(=O)NC)nc4C)CC3)c(Cl)cc2c1=O [Example 53, 5-(4-((6-chloro-3-ethyl-2,4-dioxo-1,2,3,4-tetrahydroquinazolin-7-yl)methyl)piperazin-1-yl)-N,6-dimethylpicolinamide] | > 1000 nM |
| CCn1c(=O)[nH]c2cc(CN3CCN(c4ccc(C(=O)NC)nc4C)CC3)cc(F)c2c1=O [Example 56, 5-(4-((3-ethyl-5-fluoro-2,4-dioxo-1,2,3,4-tetrahydroquinazolin-7-yl)methyl)piperazin-1-yl)-N,6-dimethylpicolinamide] | 10 to 100 nM |
| CCn1c(=O)[nH]c2cc(CN3CCN(c4cnc(C(=O)NC)cn4)CC3)ccc2c1=O [Example 57, 5-(4-((3-ethyl-2,4-dioxo-1,2,3,4-tetrahydroquinazolin-7-yl)methyl)piperazin-1-yl)-N-methylpyrazine-2-carboxamide] | > 1000 nM |
| CCn1c(=O)[nH]c2cc(CN3CCC(c4ccc(C(=O)NC)nc4C)CC3)ccc2c1=O [Example 58, 5-(1-((3-ethyl-2,4-dioxo-1,2,3,4-tetrahydroquinazolin-7-yl)methyl)piperidin-4-yl)-N,6-dimethylpicolinamide] | > 1000 nM |
| CCn1c(=O)[nH]c2cc(CN3CCN(c4ccc(C(=O)NC)nc4C)CC3)cc(Cl)c2c1=O [Example 59, 5-(4-((5-chloro-3-ethyl-2,4-dioxo-1,2,3,4-tetrahydroquinazolin-7-yl)methyl)piperazin-1-yl)-N,6-dimethylpicolinamide] | 10 to 100 nM |
| CCn1c(=O)[nH]c2cc(CN3CCN(c4ccc(C(=O)NC)nc4Cl)CC3)c(Cl)cc2c1=O [Example 65, 6-chloro-5-(4-((6-chloro-3-ethyl-2,4-dioxo-1,2,3,4-tetrahydroquinazolin-7-yl)methyl)piperazin-1-yl)-N-methylpicolinamide] | 100 to 1000 nM |
| CCn1c(=O)[nH]c2cc(CN3CCN(c4ccc(C(=O)NC)nc4Cl)CC3)c(C)cc2c1=O [Example 66, 6-chloro-5-(4-((3-ethyl-6-methyl-2,4-dioxo-1,2,3,4-tetrahydroquinazolin-7-yl)methyl)piperazin-1-yl)-N-methylpicolinamide] | 100 to 1000 nM |
| CCn1c(=O)[nH]c2cc(CN3CCN(c4ccc(C(=O)NC)cc4)CC3)ccc2c1=O [Example 68, 4-(4-((3-ethyl-2,4-dioxo-1,2,3,4-tetrahydroquinazolin-7-yl)methyl)piperazin-1-yl)-N-methylbenzamide] | > 1000 nM |
| CCn1c(=O)[nH]c2cc(CN3CCN(c4ccc(C(=O)NC)cc4F)CC3)ccc2c1=O [Example 69, 4-(4-((3-ethyl-2,4-dioxo-1,2,3,4-tetrahydroquinazolin-7-yl)methyl)piperazin-1-yl)-3-fluoro-N-methyibenzamide] | > 1000 nM |
| CCn1c(=O)[nH]c2cc(CN3CCN(c4ccc(C(=O)NC)cc4Cl)CC3)ccc2c1=O [Example 70, 3-chloro-4-(4-((3-ethyl-2,4-dioxo-1,2,3,4-tetrahydroquinazolin-7-yl)methyl)piperazin-1-yl)-N-methylbenzamide] | > 1000 nM |
| CCn1c(=O)[nH]c2cc(CN3CCN(c4ccc(C(=O)NC)cc4C)CC3)ccc2c1=O [Example 71, 4-(4-((3-ethyl-2,4-dioxo-1,2,3,4-tetrahydroquinazolin-7-yl)methyl)piperazin- -yl)-N,3-dimethylbenzamide] | > 1000 nM |
| CCn1c(=O)[nH]c2cc(CN3CCN(c4c(C)cc(C(=O)NC)nc4C)CC3)ccc2c1=O [Example 72, 5-(4-((3-ethyl-2,4-dioxo-1,2,3,4-tetrahydroquinazolin-7-yl)methyl)piperazin-1-yl)-N,4,6-trimethylpicolinamide] | > 1000 nM |
